Tested on: cell lines derived from E13 mouse limb buds
Experiment: Northern analysis of tissue specific mRNA expression in limb bud cell lines
Format: cell-based
Settings: PTHrP1-34 alone, 100 ng/ml, 1, 2, 4 or 8 days
Description: PTHrP was tested for its effect on cell lines derived from E13 mouse limb buds either alone or in combination with BMP-2. Cells were grown to confluence in DME medium supplemented with 10% fetal calf serum (FCS). At confluence, cells were transferred to DME medium supplemented with 1% FCS and cultured for 1, 2, 4 or 8 days in the presence of either BMP-2 (100 ng/ml), PTHrP1-34 (100 ng/ml)(Peninsular Laboratories Inc). or a combination of BMP-2 and PTHrP1-34. Northern analysis was used to determine expression of tissue specific mRNAs for cartilage (proteoglycan core protein, collagen type II and decorin), bone (osteocalcin, alkaline phosphatase and collagen type I) and hypertrophic cartilage (collagen type X).

PTHrP1-34: truncated peptide which comprises the first 34 amino acids of PTHrP (Peninsular Laboratories Inc)
expression of any of the tissue specific mRNAs (cartilage, bone, hypertrophic cartilage markers): did not induce expression

From patent publication US5700774A, “Compositions comprising bone morphogenic proteins and truncated parathyroid hormone related peptide, and methods of inducing cartilage by administration of same” (Genetics Institute, Inc., priority 1996, dated 1997)
